In publication PMC3750009, “Non-peptidic Cruzain Inhibitors with Trypanocidal Activity Discovered by Virtual Screening and In Vitro Assay” (PLoS Neglected Tropical Diseases, 2013):
Like-named read-outs stand apart in the source and are kept apart here.

Tests used:
[1] = mammalian cell cytotoxicity, propidium iodide flow cytometry; assay type: cell-based, mice; conditions: C57BL/6, mouse, primary spleen cells, mouse spleen cells, 24 h; read-out: Cytotoxic IC50
Description: (§1) Mammalian cell cytotoxicity was evaluated using the protocol previously reported. Spleen cells from C57BL/6 mice were isolated by mechanical dissociation, followed by incubation for 5 min with red blood cell lysis buffer (one part of 0.17 M Tris–HCl [pH 7.5] and nine parts of 0.16 M ammonium chloride). The cells were washed and suspended in RPMI 1640 medium (Gibco-BRL Life Technologies, Grand Island, NY) supplemented with 10% fetal bovine serum (Life Technologies Inc., Bethesda, MD) and antibiotics (Sigma). The cell suspension was cultured in flat-bottom 96-well plates at 5×10^5 cells per well with different concentrations of the tested compounds and incubated at 37°C in a humidified atmosphere of 5% CO2 for 24 h. Tween 20 at 0.5% was used as cell death positive control. To analyze cytotoxicity, cells were harvested, incubated with 10 µg mL^−1 propidium iodide (Sigma) and after 15 min data were acquired using a FACSCantoII (Becton-Dickinson Immunocytometry System Inc., San Jose, CA, USA). Data analysis was performed using FlowJo software (Ashland, OR, USA). The range of concentrations used for assaying cytotoxicity was 250, 125, 62.5, 31.25, 15.6, 7.8, 3.9, and 1.95 (µM).

[2] = test system: Spleen cells from C57BL/6 mice; assay: as above; assay type: cell-based; conditions: for IC50: mouse spleen cells, 24 h, read-out: Cytotoxic IC50; for cytotoxicity ratio (IC50(cyto)/IC50)(T. cruzi): spleen cell IC50 over T. cruzi IC50
Description: as §1

cathepsin L [3] = molecular target: T1, cathepsin L (Homo sapiens, UniProt P07711); assay: cathepsin L affinity constant (Ki) determination, Michaelis-Menten curves; assay type: biochemical; conditions: pH 5.5, 0.01% Triton X-100, inhibitor 30, 50 and 70 µM
T1 construct: Cathepsin L enzyme and all reagents used for buffer preparation were purchased from Sigma-Aldrich; purchased Sigma-Aldrich (St. Louis, MO, USA)
T1 sequence (P07711 114-333): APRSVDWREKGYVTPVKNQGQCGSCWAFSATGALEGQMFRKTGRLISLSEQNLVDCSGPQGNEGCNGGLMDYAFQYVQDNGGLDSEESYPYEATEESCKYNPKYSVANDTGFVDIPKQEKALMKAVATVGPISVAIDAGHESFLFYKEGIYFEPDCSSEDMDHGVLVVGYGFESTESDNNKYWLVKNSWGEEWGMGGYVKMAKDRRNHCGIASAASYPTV
Description: (§2) Recombinant cruzain enzyme was expressed and purified as previously described. The activity of the cruzain enzyme was measured and quantified through active-site titration with the irreversible inhibitor E-64, as described previously. Cathepsin L enzyme and all reagents used for buffer preparation were purchased from Sigma-Aldrich (St. Louis, MO, USA). The compounds screened against the enzymes were purchased from Enamine (Kiev, Ukraine), Chemdiv (San Diego, CA, USA), Asinex (Moscow, Russia) and IBScreen (Moscow, Russia) and had more than 95%purity, according to these suppliers. All experiments were carried out with freshly made solutions.
(§3) The activity of cruzain was measured in 100 mM phosphate buffer, 100 mM NaCl, 10 mM EDTA, DMSO (5.0% v/v), Triton X-100 (0.01% v/v) and 5.0 mM DTT at pH 6.3. The activity of cathepsin L was measured in 100 mM sodium acetate buffer, 100 mM NaCl, 10 mM EDTA, DMSO (5.0% v/v), Triton X-100 (0.01% v/v) and 5.0 mM DTT at pH 5.5. […]
(§4) The Michaelis-Menten curves were determined in the absence and presence of 30, 50 and 70 µM respectively of each inhibitor. […] The reaction was started and monitored as described above. The mechanisms of inhibition and K i values were determined using the kinetic module of SigmaPlot 10.0 by adjusting the velocities into the competitive, non-competitive and uncompetitive modes. […]

cruzain [4] = molecular target: T2, cruzain (Trypanosoma cruzi, UniProt P25779); assay: cruzain enzyme assay, IC50 determination (Z-FR-MCA fluorescence); assay type: biochemical; conditions: for IC50: Neq42 analogs, SAR, unit inferred, read-out: IC50, cruzain inhibition (Figure 6)
T2 construct: Recombinant cruzain enzyme was expressed and purified as previously described; made in house
T2 sequence (P25779 123-337 limits assumed): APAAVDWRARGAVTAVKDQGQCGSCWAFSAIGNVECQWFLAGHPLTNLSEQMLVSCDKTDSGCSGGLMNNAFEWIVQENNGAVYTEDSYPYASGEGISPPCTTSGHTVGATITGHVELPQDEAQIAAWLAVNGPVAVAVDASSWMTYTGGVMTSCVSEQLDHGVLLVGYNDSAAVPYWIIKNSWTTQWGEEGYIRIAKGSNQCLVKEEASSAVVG
Description: as §2
The activity of cruzain was measured in 100 mM phosphate buffer, 100 mM NaCl, 10 mM EDTA, DMSO (5.0% v/v), Triton X-100 (0.01% v/v) and 5.0 mM DTT at pH 6.3. The activity of cathepsin L was measured in 100 mM sodium acetate buffer, 100 mM NaCl, 10 mM EDTA, DMSO (5.0% v/v), Triton X-100 (0.01% v/v) and 5.0 mM DTT at pH 5.5. Both assays were carried out with 2 nM of the respective enzymes and 2 µM of the substrate Z-FR-MCA.
The reaction started by the addition of the substrate Z-FR-MCA was monitored by recording the emission at wavelength 460 nm while exciting at 360 nm. Fluorescence was measured using a Synergy HT fluorimeter microplate reader (Biotek). The percentage of inhibition was calculated according to following equation: [drawing 1] where vi and v0 are the initial velocities determined in presence and absence of inhibitors, respectively. The activity of enzyme in the presence of inhibitors was measured in 11 different concentrations in order to obtain the dose-response curves, which were analyzed using the Origin 7.0 program to determine the IC50 values. All experiments were repeated at least in duplicate.

cruzain [5] = molecular target: T2, cruzain; assay: cruzain affinity constant (Ki) and mechanism determination, Michaelis-Menten curves; assay type: biochemical; conditions: pH 6.3, 0.01% Triton X-100, inhibitor 30, 50 and 70 µM
Description: as §2, §3, §4

cathepsin L [6] = molecular target: T1, cathepsin L; assay: cathepsin L enzyme assay, IC50 determination (Z-FR-MCA fluorescence); assay type: biochemical; conditions: pH 5.5, 0.01% Triton X-100, 2 nM enzyme, 2 µM Z-FR-MCA
Description: as §2, §3
The reaction started by the addition of the substrate Z-FR-MCA was monitored by recording the emission at wavelength 460 nm while exciting at 360 nm. Fluorescence was measured using a Synergy HT fluorimeter microplate reader (Biotek). The percentage of inhibition was calculated according to following equation: [drawing 1] where vi and v0 are the initial velocities determined in presence and absence of inhibitors, respectively. […]

[7] = test system: T. cruzi Tulahuen lacZ strain; assay: in vitro trypanocidal activity, infected LLC-MK2 cells, CPRG readout; assay type: cell-based, Trypanosoma cruzi; conditions: for IC50: Trypanosoma cruzi
Description: In vitro trypanocidal activity of the compounds was evaluated against amastigote forms of Tulahuen strain that was genetically modified to express β-galactosidase gene from E. coli (lacZ). A monkey kidney cell strain (LLC-MK2 - ATCC) was resuspended in RPMI medium without phenol red (Gibco-BRL Life Technologies, Grand Island, NY) containing 10% fetal bovine serum (Life Technologies Inc., Bethesda, MD) and antibiotics (Sigma Chemical Co., St. Louis) at 2×10^3 cells/well and were cultured in 96-well plates for 24 h. The cells were infected with 1×10^4 trypomastigote forms of T. cruzi Tulahuen strain, and after 24 h compounds were added with different concentrations (250, 125, 62.5, 31.25, 15.6, 7.8, 3.9 and 1.95 µM). After 4 days of culture, 50 µL of PBS containing 0.5% of Triton X-100 and 100 µM Chlorophenol Red-β-D-galactoside (CPRG - Sigma) were added. Plates were incubated at 37°C for 4 h and absorbance was read at 570 nm. Benznidazole (N-benzyl-2-nitro-1-imidazolacetamide), in the same concentrations as above was used as a reference trypanocidal drug (positive control), [41].

Chagas disease [8] = test system: Chagas disease; set-up: method as in PMID 19900395; conditions: acute phase ref 5; cited from earlier work
Chagas disease [9] = test system: Chagas disease; set-up: method as in PMID 19620707; conditions: mice and dogs ref 13; cited from earlier work
[10] = set-up: method as in PMID 19620707; conditions: pre-clinical trials ref 13; cited from earlier work
[11] = LLC-MK2, 96 h, Tulahuen lacZ strain, 4 days of culture, read-out: Trypanocidal activity IC50
[12] = LLC-MK2, Tulahuen lacZ strain, read-out: trypanocidal pIC50 (converted)
[13] = TULAHUEN, LLC-MK2, average for compounds Neq165, Neq172, Neq176 and Neq177, read-out: trypanocidal pIC50 on average (converted)

Compound	IC50 at 24 h [1]	IC50 (cruzain [4])	IC50 [7, 11]	IC50 [7, 13]	also measured
NC(=O)c1ccsc1NC(=O)CSc1nnc(CN2CCCCC2)n1Cc1ccccc1 [Neq42]	50 µM	21.6 ± 5.4 µM	10.6 ± 0.1 µM	–	IC50 [2]: 49.9 ± 2.7 µM; cytotoxicity ratio (IC50(cyto)/IC50)(T. cruzi) [2]: 5; Ki (cathepsin L [3]): 35.6 ± 8.2 µM; Ki (cruzain [5]): 18.5 ± 5.5 µM; IC50 (cathepsin L [6]): 35.1 ± 11 µM; IC50 [7, 12]: 12.6 µM; preliminary trypanocidal activity ([7]; single dose of 250 µM, Tulahuen lacZ strain): active
O=C(Cn1ccnc1[N+](=O)[O-])NCc1ccccc1 [Bz, N-benzyl-2-nitro-1-imidazolacetamide, reference compound]	> 500 µM	–	64.3 ± 12.3 µM	–	cytotoxicity ratio (IC50(cyto)/IC50)(T. cruzi) [2]: 8; successful cure (Chagas disease [8]): up to 80%; IC50 [7, 12]: 63.1 µM
CN1CCN(C(=O)N[C@@H](Cc2ccccc2)C(=O)N[C@H](/C=C/S(=O)(=O)c2ccccc2)CCc2ccccc2)CC1 [Compound K11777]	–	–	–	–	efficacy in models of acute and chronic Chagas disease (Chagas disease [9]): demonstrated efficacy; mutagenicity [10]: non-mutagenic; pharmacokinetic profile [10]: acceptable pharmacokinetic profile; tolerability [10]: well tolerated
CC(Sc1nncn1-c1ccccc1)C(=O)Nc1sccc1C(N)=O (stereo not drawn) [Neq177]	> 250 µM	48.9 ± 10 µM	137 ± 14.4 µM	~158 µM	–
NC(=O)c1ccsc1NC(=O)CSc1nnc[nH]1 [Neq176]	> 250 µM	68.5 ± 3 µM	108 ± 52.2 µM	~158 µM	ligand efficiency (LE) (cruzain [4]; from cruzain potency): 0.33 kcal mol^-1 atom^-1
NC(=O)c1ccsc1NC(=O)COC(=O)[C@@H](Cc1ccccc1)NC(=O)OCc1ccccc1 [Neq172]	23 µM	73.1 ± 4.9 µM	166 ± 12.9 µM	~158 µM	IC50 [2]: 23.1 ± 2.7 µM
Cc1nnc(SCC(=O)Nc2sccc2C(N)=O)n1Cc1ccccc1 [Neq165]	–	31.3 ± 1.2 µM	153.4 ± 0.6 µM	~158 µM	–
